Laboratory results as given in patent US5866775A, “Glyphosate-tolerant 5-enolpyruvyl-3-phosphoshikimate synthases” (Monsanto Company, priority 1990, dated 1999).

Key:
[1] = system: tobacco plants transformed with glyphosate-tolerant petunia EPSP synthase (pMON567); assay: Relative effect of glyphosate spray, GT plants; type: in vivo, Nicotiana tobacam CV H425
From the text: A culture of A. tumefaciens cells containing pMON567/pGV3111-SE was co-cultured with leaf disks taken from tobacco plants (Nicotiana tobacam CV H425) as described by Horsch (1985). The Agrobacterium cells inserted the variant EPSP synthase gene into the chromosomes of the plant cells. Plant cells resistant to kanamycin were selected and regenerated into differentiated plants by the procedure of Horsch (1985).
Progeny of these plants were propagated and grown to a rosette diameter of about 10 cm corresponding to a plant age of about four weeks. The plants were sprayed with glyphosate at levels corresponding to 0.4, 2.0 and 3.6 pounds acid equivalent/acre. The effect of glyphosate on the transformed plants were scored at 7, 14 and 28 days. The effect was translated to a numerical scale of 0-10 in which 0 represents total kill and 10 is the normal, unsprayed plant. […] The values represent the best transformant for both wild-type EPSP synthase and glypho sate-tolerant EPSP synthase genes.

[2] = system: petunia leaf disks transformed with control vector pMON505; assay: Leaf disk callus growth on glyphosate medium, control disks; type: cell-based; details: within 10 days
Method: Leaf disks with diameters of 6 mm (1/4 inch) were taken from surface-sterilized petunia leaves. They were cultured on MS104 agar medium for 2 days to promote partial cell wall formation at the wound surfaces. They were then submerged in a culture of A. tumefaciens cells containing both pMON546 and GV3111-SE which had grown overnight in Luria broth at 28° C., and shaken gently. The leaf disks were removed from the bacterial suspension, blotted dry, and incubated upside down on filter paper placed over "nurse" cultures of tobacco cells, as described by Horsch (1980). After 2 or 3 days, the disks were transferred to petri dishes containing MS media with 500 μg/ml carbenicillin and 0. 0.1, 0.25, or 0.5 mM glyphosate (sodium salt), with no nurse cultures.
Control tissue was created using A. tumefaciens cells containing the helper plasmid pGV3111-SE and a different plant transformation vector, pMON505, which contained a T-DNA region with a NOS/NPTII/NOS kanamycin resistance gene and a NOS selectable marker gene identical to pMON546, but without the CaMV35S/EPSP synthase gene.

## O=C(O)CNCP(=O)(O)O [glyphosate, N-phosphonomethylglycine]
[1]; 0.4 pounds/acre (0.448 kg/hectare), day 7, best transformant
  Relative Effect of Glyphosate (0 total kill, 10 no effect): 8.0
[1]; 0.4 pounds/acre (0.448 kg/hectare), day 14, best transformant
  Relative Effect of Glyphosate (0 total kill, 10 no effect): 8.0
[1]; 0.4 pounds/acre (0.448 kg/hectare), day 28, best transformant
  Relative Effect of Glyphosate (0 total kill, 10 no effect): 9.0
[1]; 2.0 pounds/acre (2.242 kg/hectare), day 7, best transformant
  Relative Effect of Glyphosate (0 total kill, 10 no effect): 8.0
[1]; 2.0 pounds/acre (2.242 kg/hectare), day 14, best transformant
  Relative Effect of Glyphosate (0 total kill, 10 no effect): 8.3
[1]; 2.0 pounds/acre (2.242 kg/hectare), day 28, best transformant
  Relative Effect of Glyphosate (0 total kill, 10 no effect): 7.0
[1]; 3.6 pounds/acre (4.035 kg/hectare), day 7, best transformant
  Relative Effect of Glyphosate (0 total kill, 10 no effect): 5.0
[1]; 3.6 pounds/acre (4.035 kg/hectare), day 14, best transformant
  Relative Effect of Glyphosate (0 total kill, 10 no effect): 7.4
[1]; 3.6 pounds/acre (4.035 kg/hectare), day 28, best transformant
  Relative Effect of Glyphosate (0 total kill, 10 no effect): 7.0
[2]; 0.25 mM glyphosate (sodium salt)
  callus growth: very little growth of callus from control disks
[2]; 0.5 mM glyphosate (sodium salt)
  callus growth: no callus growth from the control disks
